Format in all cases: biochemical
For series [1], the system named is panel of recombinant human P450s. As to the kind of experiment: Two-step luminescent screen of luciferin derivatives against a panel of recombinant human P450s and HLM. The conditions noted are these: 50 μM substrate, panel of FIGS. 17-18. Here is the method:
P450s are Supersomes™ purchased from Discovery Labware (BD/Gentest). […] HLM is human liver microsomes.
1× substrate concentration: 50 μM.
The HLM reactions contained […] reaction, except where indicated otherwise. Control insect cell membranes were at 50 μg/50 μL.
For FIG. 20, the panel of human P450s was screened as described above.

The subject of series [2] is thermostable luciferase (Luc 146-1H2). As to the kind of experiment: Residual active thermostable luciferase after reaction with derivative (Steady Glo). The conditions noted are these: substrate 100; +DTT; sample taken 60 min. As to the method:
After assembly, the reactions were initiated by addition of 25 μl of the thermostable luciferase stock solution above and mixing the tube contents. A 50 μl sample was immediately removed and placed in a luminometer tube and the light read and the tube then replaced in a tube rack at room temperature. While the light reading was being taken, a 5 μl sample of the remaining reaction (which was kept at room temperature) was diluted into 495 μl of 50 mM BisTris, pH 6.5, 1 mg/ml BSA, 1 mM EDTA prechilled to 4° C. and the tube mixed and placed on ice. The light produced by the samples in the luminometer tubes were re-read at 20, 40, 60, 90 and 120 minutes post enzyme addition. Additional 5 μl samples were taken and diluted as above at 60 and 120 minutes post enzyme addition. Once all these readings and samples were taken, 50 μl of the diluted samples was mixed with 50 μl of Steady Glo in luminometer tubes, the tubes incubated 10 minutes […] then the light produced was read on a Turner TD 20/20 luminometer.

Series [3] has as its target T1, QuantiLum Luciferase (firefly luciferase) (Photinus pyralis, UniProt P08659).
T1 construct: purchased Promega Corporation El 70
In words: Residual active QuantiLum luciferase after reaction with derivative (Steady Glo). As to the method:
(§1) After producing the solutions in Table 37, the volume of all reactions was adjusted to 990 μl with water. […] While the light reading was being taken, a 10 μl sample of the reaction was diluted to 500 μl with enzyme stop solution (cooled on ice to 4° C.) mixed and placed on ice and a second sample of 90 μl of reaction was added to 10 μl of Gel/HPLC stop and the tube placed at −20° C. A timer was started with the start of the first reaction and the start times of the remaining reactions was noted. At 15, 30, 45 and 60 minutes, each reaction was sampled as above and the light produced in the luminometer tubes was measured. At 7 and 22 minutes, the light produced in the luminometer tubes was read, but the reactions were not sampled.
After all samples were taken, 50 μl of the sample diluted into enzyme stop solution was mixed with 50 μl of Steady Glo Luciferase Reagent (Promega) and the light produced measured after incubating at room temperature for 10 minutes. This measured the active luciferase in the initial reaction.
as §1, with “40,” for “37,”, “−200” for “−20°”

The target in series [4] is T1, QuantiLum Luciferase (firefly luciferase). As to the kind of experiment: Light emission of QuantiLum firefly luciferase with luciferin derivatives. Here is the method: Gel and HPLC stop solution. Solid EDTA (free acid) was placed in a beaker with water and the pH of the solution adjusted to pH 7.0. The solution was then adjusted in volume to produce a solution 400 mM in EDTA.
Enzyme stop solution. A solution was prepared containing 20 mM Bis Tris, pH 6.5, 2 mM EDTA and 1 mg/ml bovine serum albumin.
Reaction buffer (2×). A solution was made containing 100 mM HEPES buffer, pH 8.0; 10 mM MgCl2.
DTT stock. Solid DTT (dithiothreitol) was dissolved in water and then adjusted to pH 8.0 with solid sodium hydroxide. The solution was then adjusted in volume to produce a solution 1 M in DTT.
as §1
as §1, with “40,” for “37,”, “−200” for “−20°”
The DTT, Coenzyme A, and QuantiLum stock solutions are the same as those described herein.
This solution was diluted 1:1 with water to produce an enzyme solution labeled “No addition.” This solution was diluted 1:1 with 400 mM DTT, pH 8.0 to produce a solution labeled+DTT. This solution was diluted 1: 1 with 4 mM Coenzyme A to produce a solution labeled+Co A. Finally, this solution was diluted 1: 1 with a solution having both 4 mM Coenzyme A and 400 mM DTT to produce a solution labeled+Co A & DTT.
50 μl samples of these solutions were placed in the wells of luminometer microtiter plates, row A to row G, respectively. Row H of the plates was given 50 μl of water.
Reactions in these plates were initiated by addition of 50 μl of solution containing QuantiLum luciferase using a 12 channel micropipette. The solutions added to the rows were: columns 1, 5, and 9—no addition solution; columns 2, 6, and 10—+Co A solution; columns 3, 7, and 11—+DTT solution, and; columns 4, 8, and 12—+Co A and DTT solution. After addition of the enzyme solution to the first row on every plate, a timer was started. After addition of the enzyme solution to the last row on each plate, the plate was sealed and read on a Veritas luminometer.

T1 sequence (P08659 whole entry): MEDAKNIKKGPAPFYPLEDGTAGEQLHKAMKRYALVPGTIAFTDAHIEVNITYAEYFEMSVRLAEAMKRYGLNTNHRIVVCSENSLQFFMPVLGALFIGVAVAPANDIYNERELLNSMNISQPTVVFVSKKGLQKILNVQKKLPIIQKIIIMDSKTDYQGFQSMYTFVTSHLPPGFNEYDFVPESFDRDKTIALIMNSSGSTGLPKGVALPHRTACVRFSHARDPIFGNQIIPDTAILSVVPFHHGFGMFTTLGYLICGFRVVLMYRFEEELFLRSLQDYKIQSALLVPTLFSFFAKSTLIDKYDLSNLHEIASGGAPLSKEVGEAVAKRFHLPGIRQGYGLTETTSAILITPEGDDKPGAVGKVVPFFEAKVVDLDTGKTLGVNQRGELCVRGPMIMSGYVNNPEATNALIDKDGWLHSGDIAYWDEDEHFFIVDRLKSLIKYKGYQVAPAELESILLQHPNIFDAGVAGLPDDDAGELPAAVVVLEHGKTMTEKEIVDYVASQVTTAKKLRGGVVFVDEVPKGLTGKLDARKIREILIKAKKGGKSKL

`COc1ccc2nc(C3=NC(C(=O)OCc4cccnc4)CS3)sc2c1` (stereo not drawn): the “P450 enzyme activity / selectivity (words)” value in series [1] is “preference for 2D6, 1A1 and 1A2”.
Still for that read-out and setting: next, 4-(O-methyl)-6-(O-methyl)-luciferin: “enhanced selectivity for 1 A2, 2C8 and 2C9”; 4-methyl-6-(O-methyl)-luciferin: “enhanced selectivity for 1 A2, 2C8 and 2C9”.
In the case of `Cc1cc(C)c(COc2ccc3nc(C4=N[C@@H](C(=O)O)CS4)sc3c2)c(C)c1` [6′(2,4,6-trimethylbenzyloxy)-luciferin], the “P450 enzyme activity / selectivity (words)” value is “selective for three members of the CYP3A subfamily, CYP3A4, CYP3A5 and CYP3A7” in series [1]; “showed substantial activity with CYP3A4 and did not show substantial cross reactivity with CYP4F12” in series [1] (listed as 6(2,4,6 trimethylbenzyl)-luciferin).
`O=C(O)[C@H]1CSC(c2nc3ccc(OCc4ccccc4C(F)(F)F)cc3s2)=N1` [6′(o-trifluoromethylbenzyloxy)-luciferin]: the “P450 enzyme activity / selectivity (words)” value is “selective for three members of the CYP3A subfamily, CYP3A4, CYP3A5 and CYP3A7” in series [1]; “showed substantial activity with CYP3A4 and did not show substantial cross reactivity with CYP4F12” in series [1] (listed as 6—O-trifluoromethylbenzyl luciferin).
On to `O=C(O)[C@H]1CSC(c2nc3ccc(OCc4c(F)c(F)c(F)c(F)c4F)cc3s2)=N1` [6′-(2,3,4,5,6-pentafluorobenzyloxy)-luciferin], for which the “P450 enzyme activity / selectivity (words)” value in series [1] was “selective for three members of the CYP3A subfamily, CYP3A4, CYP3A5 and CYP3A7”; in series [1] (listed as 6(2,3,4,5,6 pentafluorbenzyloxy)-luciferin), “showed substantial activity with CYP3A4 and did not show substantial cross reactivity with CYP4F12”.
Regarding `O=C(O)[C@H]1CSC(c2nc3ccc(OCSc4ccc(Cl)cc4)cc3s2)=N1` [6′-p-chlorophenylthiol-methoxy-luciferin, 6-(4-Chloro-phenylthiomethoxy)luciferin], in series [1], the “P450 enzyme activity / selectivity (words)” value is “showed selectivity for CYP3A7”.
With `O=C(O)[C@H]1CSC(c2ccc3cc(OCOCc4ccccc4)ccc3n2)=N1` [6′benzyloxymethoxy-quinolylluciferin], in series [1], the “P450 enzyme activity / selectivity (words)” value was “selective for three members of the CYP3A subfamily, CYP3A4, CYP3A5 and CYP3A7”.
Consider `O=C(O)[C@H]1CSC(c2nc3ccc(OCc4ccccc4)cc3s2)=N1` [L'in-BE], for which the “light value of diluted reaction sample in Steady Glo” value in series [2] amounted to 962.1.
In the case of `COc1ccc2nc(C3=NC(C(=O)O)CS3)sc2c1` (stereo not drawn) [Luc’in ME], in series [3] (+Co A), the “Light reading from residual active enzyme at time 0 min” value is listed as 163.3, the “Light reading from residual active enzyme at time 15 min” value worked out at 161.8, the “Light reading from residual active enzyme at time 30 min” value worked out at 147.7 and the “Light reading from residual active enzyme at time 45 min” value is listed as 144.7. Further, in series [3] (+Co A), the “Light reading from residual active enzyme at time 60 min” value is given as 145.6. Besides, in series [3] (+DTT), the “Light reading from residual active enzyme at time 0 min” value is 170, the “Light reading from residual active enzyme at time 15 min” value is reported as 172.3, the “Light reading from residual active enzyme at time 30 min” value was 164.3 and the “Light reading from residual active enzyme at time 45 min” value is 161.6. Besides, the “Light reading from residual active enzyme at time 60 min” value in series [3] (+DTT) was 167.6. Also, in series [3] (+EDTA), the “Light reading from residual active enzyme at time 0 min” value worked out at 150.5, the “Light reading from residual active enzyme at time 15 min” value came out at 150, the “Light reading from residual active enzyme at time 30 min” value worked out at 152.1 and the “Light reading from residual active enzyme at time 45 min” value was found to be 152.8. Further, in series [3] (+EDTA), the “Light reading from residual active enzyme at time 60 min” value worked out at 151. Also, in series [3] (No addition), the “Light reading from residual active enzyme at time 0 min” value amounted to 141.7, the “Light reading from residual active enzyme at time 15 min” value was 35.4, the “Light reading from residual active enzyme at time 30 min” value amounted to 91.82 and the “Light reading from residual active enzyme at time 45 min” value is on record as 85.72. Further, the “Light reading from residual active enzyme at time 60 min” value in series [3] (No addition) is 81.76. In series [3] (w/o ATP), the “Light reading from residual active enzyme at time 0 min” value amounted to 170, the “Light reading from residual active enzyme at time 15 min” value was determined as 168.9, the “Light reading from residual active enzyme at time 30 min” value was 175.6 and the “Light reading from residual active enzyme at time 45 min” value stood at 181.9. In addition, in series [3] (w/o ATP), the “Light reading from residual active enzyme at time 60 min” value amounted to 173.6. In series [4] (+Co A), the “Light reading at time 0 min” value turned out to be 18.31, the “Light reading at time 7 min” value worked out at 2.276, the “Light reading at time 15 min” value was determined as 1.239 and the “Light reading at time 22 min” value worked out at 1.178. Also, in series [4] (+Co A), the “Light reading at time 30 min” value was 1.145, the “Light reading at time 45 min” value amounted to 0.916 and the “Light reading at time 60 min” value is on record as 0.714. Also, in series [4] (+DTT), the “Light reading at time 0 min” value came out at 38.69, the “Light reading at time 7 min” value is 6.42, the “Light reading at time 15 min” value stood at 4.073 and the “Light reading at time 22 min” value stood at 3.31. In addition, in series [4] (+DTT), the “Light reading at time 30 min” value was 2.708, the “Light reading at time 45 min” value is reported as 2.202 and the “Light reading at time 60 min” value was 1.996. In series [4] (+EDTA), the “Light reading at time 0 min” value is 1.067, the “Light reading at time 7 min” value turned out to be 0.117, the “Light reading at time 15 min” value is 0.058 and the “Light reading at time 22 min” value stood at 0.042. In series [4] (+EDTA), the “Light reading at time 30 min” value was 0.024, the “Light reading at time 45 min” value is 0.046 and the “Light reading at time 60 min” value came out at 0.012. Also, in series [4] (No addition), the “Light reading at time 0 min” value is on record as 23.46, the “Light reading at time 7 min” value is listed as 3.144, the “Light reading at time 15 min” value was 1.767 and the “Light reading at time 22 min” value was 1.317. Further, in series [4] (No addition), the “Light reading at time 30 min” value is listed as 1.22, the “Light reading at time 45 min” value came out at 0.982 and the “Light reading at time 60 min” value turned out to be 0.851. Besides, in series [4] (w/o ATP), the “Light reading at time 0 min” value is given as 0, the “Light reading at time 7 min” value is 0.017, the “Light reading at time 15 min” value was found to be 0.016 and the “Light reading at time 22 min” value worked out at 0. Moreover, in series [4] (w/o ATP), the “Light reading at time 30 min” value is given as 0, the “Light reading at time 45 min” value was 0.017 and the “Light reading at time 60 min” value is 0.011.

These data come from US10745365B2, “Luminogenic and fluorogenic compounds and methods to detect molecules or conditions” (Promega Corporation, priority 2005, dated 2020).
